Common to all, as to assay type: biochemical
The target of assay [1] is T1, MMP-13 catalytic domain (MMP-13CD) (Homo sapiens, UniProt P45452).
T1 construct: use the catalytic domain of the MMP-13 enzyme, namely matrix metalloproteinase-13 catalytic domain (“MMP-13CD”), rather than the corresponding full-length enzyme
The experiment in a line: Inhibition of MMP-13 catalytic domain (thiopeptolide substrate hydrolysis). To be noted: Biological Table 1; read-out: MMP-13CD IC50. The text has this:
(§1) The assays measure the amount by which a test compound reduces the hydrolysis of a thiopeptolide substrate catalyzed by a matrix metalloproteinase enzyme. Such assays are described in detail by Ye et al., in Biochemistry, 1992;31(45):11231-11235, which is incorporated herein by reference. One such assay is described below in Biological Method 1.
Some of the particular methods described below use the catalytic domain of the MMP-13 enzyme, namely matrix metalloproteinase-13 catalytic domain (“MMP-13CD”), rather than the corresponding full-length enzyme, MMP-13. It has been shown previously by Ye Qi-Zhuang, Hupe D., and Johnson L. (Current Medicinal Chemistry, 1996;3:407-418) that inhibitor activity against a catalytic domain of an MMP is predictive of the inhibitor activity against the respective full-length MMP enzyme.
(§2) Thiopeptolide substrates show virtually no decomposition or hydrolysis at or below neutral pH in the absence of a matrix metalloproteinase enzyme. A typical thiopeptolide substrate commonly utilized for assays is Ac-Pro-Leu-Gly-thioester-Leu-Leu-Gly-OEt. A 100 μL assay mixture will contain 50 mM of N-2-hydroxyethylpiperazine-N′-2-ethanesulfonic acid buffer (“HEPES,” pH 7.0), 10 mM CaCl2, 100 μM thiopeptolide substrate, and 1 mM 5,5′-dithio-bis-(2-nitro-benzoic acid) (DTNB). The thiopeptolide substrate concentration may be varied, for example from 10 to 800 μM to obtain Km and Kcat values. The change in absorbance at 405 nm is monitored on a Thermo Max microplate reader (molecular Devices, Menlo Park, Calif.) at room temperature (22° C.). The calculation of the amount of hydrolysis of the thiopeptolide substrate is based on E412=13600 M^−1 cm^−1 for the DTNB-derived product 3-carboxy-4-nitrothiophenoxide. Assays are carried out with and without matrix metalloproteinase inhibitor compounds, and the amount of hydrolysis is compared for a determination of inhibitory activity of the test compounds.
(§3) Test compounds were evaluated at various concentrations in order to determine their respective IC50 values, the micromolar concentration of compound required to cause a 50% inhibition of catalytic activity of the respective enzyme.

Assay [2] deals with MMP-3 catalytic domain (MMP-3CD) (Homo sapiens, UniProt P08254). The experiment in a line: Inhibition of MMP-3 catalytic domain (thiopeptolide substrate hydrolysis, MES pH 6.0).
Sequence of MMP-3 catalytic domain (MMP-3CD) (P08254 100-272 limits assumed, species assumed): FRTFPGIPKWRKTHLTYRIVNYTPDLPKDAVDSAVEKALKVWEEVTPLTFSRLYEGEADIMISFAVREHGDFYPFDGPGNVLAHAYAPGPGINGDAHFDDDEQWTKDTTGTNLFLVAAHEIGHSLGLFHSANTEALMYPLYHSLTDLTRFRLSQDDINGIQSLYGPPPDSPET
Description: as §1, §2, §3
It should be appreciated that the assay buffer used with MMP-3CD was 50 mM N-morpholinoethane sulfonate (“MES”) at pH 6.0 rather than the HEPES buffer at pH 7.0 described above.

Assay [3] has as its target T2, MMP-12 catalytic domain (MMP-12CD) (Homo sapiens, UniProt P39900).
T2 construct: MMP-3 catalytic domain, MMP-12 catalytic domain, MMP-14 catalytic domain, and MMP-17 catalytic domain
Briefly: Inhibition of MMP-12 catalytic domain (thiopeptolide substrate hydrolysis).
Description: as §1, §2, §3
(§4) The test described above for the inhibition of MMP-13 may also be adapted and used to determine the ability of the compounds of Formula I to inhibit the matrix metalloproteases MMP-1, MMP-2, MMP-3, MMP-7, MMP-9, MMP-12 and MMP-14.

The target in assay [4] is MMP-14 catalytic domain (MMP-14CD) (Homo sapiens, UniProt P50281). The experiment in a line: Inhibition of MMP-14 catalytic domain (thiopeptolide substrate hydrolysis).
Description: as §1, §2, §3, §4

Assay [5] has as its target T3, MMP-17 catalytic domain (MMP-17CD) (Homo sapiens, UniProt Q9ULZ9).
T3 construct: MMP-3 catalytic domain, MMP-12 catalytic domain, MMP-14 catalytic domain, and MMP-17 catalytic domain
T3 sequence (Q9ULZ9 126-295 limits assumed): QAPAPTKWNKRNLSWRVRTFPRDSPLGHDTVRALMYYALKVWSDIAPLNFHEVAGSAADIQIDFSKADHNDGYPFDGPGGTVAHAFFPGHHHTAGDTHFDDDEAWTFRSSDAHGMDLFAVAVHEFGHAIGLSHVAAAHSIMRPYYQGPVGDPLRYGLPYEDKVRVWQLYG
Briefly: Inhibition of MMP-17 catalytic domain (thiopeptolide substrate hydrolysis).
Description: as §1, §2, §3

pIC50: −log10 of the molar value. Bounds are passed on as bounds.

T2 sequence (P39900 106-263 limits assumed, species assumed): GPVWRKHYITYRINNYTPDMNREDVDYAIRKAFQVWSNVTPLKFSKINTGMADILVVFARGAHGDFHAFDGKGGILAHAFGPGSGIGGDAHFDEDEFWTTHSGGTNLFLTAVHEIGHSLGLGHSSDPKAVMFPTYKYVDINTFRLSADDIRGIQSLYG

For orientation: pIC50 means −log10 of the IC50, conventionally taken in molar units. Regarding `O=C1CC(NC(=O)c2ccc(Cn3ccc4ccc(C#CCc5ccccc5)cc4c3=O)cc2)=NN1` [Example 22, N-(5-oxo-4,5-dihydro-1H-pyrazol-3-yl)-4-[1-oxo-7-(3-phenylprop-1-ynyl)-1H-isoquinolin-2-ylmethyl]benzamide], the negative logarithm of the IC50 (pIC50) in assay [1] was 7.72; in assay [2] it was 5.39; in assay [3] it was under 4.00; in assay [4], 4.80; in assay [5], 4.85.

Regarding `COc1cc(CNC(=O)c2ccc3ccn(Cc4ccc(C#N)cc4)c(=O)c3c2)ccn1` [Example 35, 2-(4-cyanobenzyl)-1-oxo-1,2-dihydro-isoquinoline-7-carboxylic Acid (2-methoxypyridin-4-ylmethyl)amide], the pIC50 in assay [1] is 6.40; in assay [2], 5.15; in assay [3] it was under 5.00; in assay [4], 4.09.

Take `COc1ccc(CNC(=O)c2ccc3ccn(Cc4ccc(F)c(F)c4)c(=O)c3c2)cc1` [Example 25]: the pIC50 was 6.48 in assay [1]; 4.22 in assay [2]; under 4.52 in assay [3]; under 4.00 in assay [4]; under 4.52 in assay [5].

Take `COc1cc(CNC(=O)c2ccc3ccn(Cc4ccc(C(=O)O)cc4)c(=O)c3c2)ccn1` [Example 27, 4-{7-[(2-methoxypyridin-4-ylmethyl)carbamoyl]-1-oxo-1H-isoquinolin-2-ylmethyl}benzoic acid]: the pIC50 in assay [1] was 7.44; in assay [2] it was under 4.00; in assay [3], under 4.00; in assay [4], under 4.00; in assay [5], 4.13.

For `COc1cc(CNC(=O)c2ccc3ccn(Cc4ccc(C(=O)O)cc4)c(=O)c3c2)ccc1O` [Example 32], the negative-log IC50 (pIC50) in assay [1] is 6.82; in assay [2], under 4.00; in assay [3], under 4.00; in assay [4], under 4.00; in assay [5], under 4.00.

As to `O=C(NCCN1CCOCC1)c1ccc(Cn2ccc3ccc(C#CCc4ccccc4)cc3c2=O)cc1` [Example 21, N-(2-morpholin-4-yl-ethyl)-4-[1-oxo-7-(3-phenylprop-1-ynyl)-1H-isoquinolin-2-ylmethyl]-benzamide], the negative-log IC50 (pIC50) was 7.17 in assay [1]; 4.66 in assay [2]; under 4.00 in assay [3]; under 4.00 in assay [4]; under 5.52 in assay [5].

As for `O=C(O)c1ccc(Cn2ccc3ccc(C(=O)NCc4ccc(F)cc4)cc3c2=O)cc1` [Example 31, 4-[7-(4-fluoro-benzylcarbamoyl)-1-oxo-1H-isoquinolin-2-ylmethyl]benzoic Acid], the pIC50 is 7.52 in assay [1]; under 4.00 in assay [2]; under 4.00 in assay [3]; under 4.00 in assay [4]; under 4.00 in assay [5].

With `O=C(O)c1ccc(Cn2ccc3ccc(C(=O)NCc4ccncc4)cc3c2=O)cc1` [Example 29, 4-{1-oxo-7-[(pyridin-4-ylmethyl)carbamoyl]-1H-isoquinolin-2-ylmethyl}benzoic Acid], the negative-log IC50 (pIC50) in assay [1] is 6.72; in assay [2], under 4.00; in assay [3], under 4.00; in assay [4] it was under 4.00; in assay [5], under 4.00.

Turning to `COc1cc(CNC(=O)c2ccc3ccn(Cc4ccc(F)c(F)c4)c(=O)c3c2)ccn1` [Example 23, 2-(3,4-difluorobenzyl)-1-oxo-1,2-dihydroisoquinoline-7-carboxylic acid (2-methoxypyridin-4-ylmethyl)amide], the pIC50 in assay [1] was 6.54; in assay [2], under 4.00; in assay [3] it was under 4.00; in assay [4] it was under 4.00; in assay [5], under 5.00.

Consider `COc1cc(CNC(=O)c2ccc3ccn(Cc4ccc(S(C)(=O)=O)cc4)c(=O)c3c2)ccn1` [Example 51, 2-(4-methane-sulfonylbenzyl)-1-oxo-1,2-dihydro-isoquinoline-7-carboxylic Acid (2-methoxypyridin-4-ylmethyl)amide], for which the negative-log IC50 (pIC50) in assay [1] is 6.17; in assay [2] it was under 4.00; in assay [3], under 4.52; in assay [4] it was under 4.00; in assay [5], under 4.00.

On to `O=c1c2cc(C#CCc3ccccc3)ccc2ccn1Cc1ccc(-c2nn[nH]n2)cc1` [Example 18, 7-(3-phenylprop-1-ynyl)-2-[4-(2H-tetrazol-5-yl)benzyl]-2H-isoquinolin-1-one], for which the pIC50 in assay [1] was 8.54; in assay [2], 5.40; in assay [3], under 4.52; in assay [4] it was under 4.52; in assay [5] it was under 4.52.

For the molecule `COc1cccc(CNC(=O)c2ccc3ccn(Cc4ccc(-c5nn[nH]n5)cc4)c(=O)c3c2)c1` [Example 59, 1-oxo-2-[4-(2H-tetrazol-5-yl)benzyl]-1,2-dihydroisoquinoline-7-carboxylic Acid 3-methoxy-benzylamide], the pIC50 in assay [1] was 8.54; in assay [2] it was under 5.00; in assay [3], under 5.00; in assay [4], under 4.52; in assay [5], under 4.52.

As for `O=C(O)c1ccc(Cn2ccc3ccc(C(=O)NCc4cccnc4)cc3c2=O)cc1` [Example 30, 4-{1-oxo-7-[(pyridin-3-ylmethyl)carbamoyl]-1H-isoquinolin-2-ylmethyl}benzoic Acid], the pIC50 is 6.40 in assay [1]; under 4.00 in assay [2]; under 4.00 in assay [3]; under 4.00 in assay [4]; under 4.00 in assay [5].

Regarding `CSc1ccc(CNC(=O)c2ccc3ccn(Cc4ccc(C#N)cc4)c(=O)c3c2)cc1` [Example 40, 2-(4-cyanobenzyl)-1-oxo-1,2-dihydro-isoquinoline-7-carboxylic Acid 4-methylsulfanyl-benzylamide], the pIC50 is 6.37 in assay [1]; 5.21 in assay [2]; 5.17 in assay [3]; under 5.00 in assay [4]; under 5.00 in assay [5].

Regarding `O=C(NCc1ccc(-c2csnn2)cc1)c1ccc2ccn(Cc3ccc(-c4nn[nH]n4)cc3)c(=O)c2c1` [Example 64, 1-oxo-2-[4-(2H-tetrazol-5-yl)benzyl]-1,2-dihydroisoquinoline-7-carboxylic Acid 4-[1,2,3]thiadiazol-4-yl-benzylamide], the pIC50 in assay [1] is 7.17; in assay [2], 4.80; in assay [5] it was under 5.00.

On to `COc1ccc(CNC(=O)c2ccc3ccn(Cc4ccc(-c5nn[nH]n5)cc4)c(=O)c3c2)cc1` [Example 58, 1-oxo-2-[4-(2H-tetrazol-5-yl)benzyl]-1,2-dihydroisoquinoline-7-carboxylic Acid 4-methoxy-benzylamide], for which the pIC50 in assay [1] is 7.77; in assay [2], 4.57; in assay [3], 4.25; in assay [4], under 4.00; in assay [5], 4.96.

`COc1ccc(CNC(=O)c2ccc3ccn(Cc4ccc(C#N)cc4)c(=O)c3c2)cc1` [Example 36, 2-(4-cyanobenzyl)-1-oxo-1,2-dihydro-isoquinoline-7-carboxylic Acid 4-methoxybenzylamide]: the pIC50 is 6.62 in assay [1], 4.72 in assay [2], 4.62 in assay [3] and under 4.52 in assay [4].

For the molecule `COc1cccc(CNC(=O)c2ccc3ccn(Cc4ccc(C#N)cc4)c(=O)c3c2)c1` [Example 37, 2-(4-cyanobenzyl)-1-oxo-1,2-dihydro-isoquinoline-7-carboxylic Acid 3-methoxybenzylamide], the pIC50 in assay [1] is 7.02; in assay [2] it was 4.89; in assay [3], 4.89; in assay [4], under 4.52.

For the origin of these results see patent US20040044000A1, “Isoquinoline derivatives as matrix metalloproteinase inhibitors” (priority 2002, published 2004).
